Measurements reported in PMC3827198, “Characterisation of AmphiAmR11, an Amphioxus (Branchiostoma floridae) D2-Dopamine-Like G Protein-Coupled Receptor” (PLoS ONE, 2013).
Structures can show the parent of a compound that is named as a salt.

How the values were obtained:
AmphiAmR11 [1] = target: T1, AmphiAmR11 (Branchiostoma floridae, UniProt A0PF35); assay: ERK1/2 phosphorylation in AmphiAmR11-expressing CHO-K1 cells (Western blotting); assay type: cell-based; settings: 1 μM antagonist
AmphiAmR11 [2] = target: T1, AmphiAmR11; assay: Block of tyramine-induced inhibition of forskolin-stimulated cAMP levels in AmphiAmR11-expressing CHO-K1 cells; assay type: cell-based; settings: 1 μM antagonist, 30 nM tyramine, 10 µM forskolin
AmphiAmR11 [3] = target: T1, AmphiAmR11; assay: Block of dopamine-induced ERK1/2 activation in AmphiAmR11-expressing CHO-K1 cells by antagonists; assay type: cell-based; settings: 1 µM antagonist, 10 nM dopamine, 5 min
AmphiAmR4 = tested on: AmphiAmR4; design: method as in PMID 23183848; settings: cited from earlier work
[4] = tested on: OctβRs, CG6989, CG6919 and CG7078; design: method as in PMID 15998303; settings: cited from earlier work

T1 sequence (A0PF35 entry or part of it): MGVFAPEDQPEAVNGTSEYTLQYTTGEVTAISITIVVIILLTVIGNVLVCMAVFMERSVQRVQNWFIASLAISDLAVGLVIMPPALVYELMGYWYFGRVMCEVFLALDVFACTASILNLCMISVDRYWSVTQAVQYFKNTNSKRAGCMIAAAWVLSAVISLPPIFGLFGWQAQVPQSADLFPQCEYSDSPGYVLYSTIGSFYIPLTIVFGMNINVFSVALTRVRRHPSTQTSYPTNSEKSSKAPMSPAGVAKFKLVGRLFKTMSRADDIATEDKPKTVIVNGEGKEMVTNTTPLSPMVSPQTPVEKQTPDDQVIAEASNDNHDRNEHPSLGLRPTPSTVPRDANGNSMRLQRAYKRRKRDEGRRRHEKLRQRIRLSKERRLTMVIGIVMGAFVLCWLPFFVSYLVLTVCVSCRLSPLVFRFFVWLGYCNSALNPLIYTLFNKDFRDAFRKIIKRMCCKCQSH

Effect of antagonist on ERK1/2 phosphorylation in the absence of dopamine (AmphiAmR11 [1]): did not exhibit any agonistic properties
Block of tyramine-induced inhibition of forskolin-stimulated cAMP levels (AmphiAmR11 [2]): fully block
Block of dopamine-induced ERK1/2 activation (AmphiAmR11 [3]): fully block
Compound: Cc1ccc(N(CC2=NCCN2)c2cccc(O)c2)cc1 [phentolamine, phentolamine hydrochloride]
Agonist activity at AmphiAmR4 (AmphiAmR4): agonist properties
Agonist properties at Drosophila OctβRs [4]: agonist properties
